# From US12600724B2, “Indole alkaloid and preparation method and use thereof” (NANJING UNIVERSITY OF CHINESE MEDICINE, priority 2022, dated 2026)
# How the values were obtained:
# [1] = test system: STZ-induced type-1 diabetes model mice; test: 50% mechanical pain threshold (Von frey), type-1 diabetic peripheral neuropathy mice; type: in vivo, C57BL/6J mice; conditions: type-1 mice, S26 46.8 mg/kg/day intragastric, Mean ± SD, n = 6
# Experimental: (§1) Type-1 diabetes mice: male 8-week-old C57BL/6J mice were purchased from Beijing Vital River Laboratory Animal Technology Co., Ltd. One week after adaptive feeding, STZ (150 mg/kg) was injected intraperitoneally, and one week later, tail vein blood collection was carried out for blood sugar detection, and the mice with random blood sugar greater than 16 mmol/L were selected. Six weeks after STZ injection, the mice were divided into a control group (non-diabetic mice), a model group (DPN mice) and a S26 administration group (46.8 mg/kg/day) respectively according to body weight and blood sugar, and administrated intragastrically for four weeks continuously. This experiment was based on a principle that claws of rodents would have a withdrawal reflex under mechanical stimulation. A Von frey tactile measuring set was purchased from Ugo Basile Company, and Von frey filaments could provide 0.008 g to 300 g of stimulating force, wherein a thickness of the filaments determined a magnitude of the stimulating force. Specific experimental method: filaments with proper thicknesses were selected to vertically stimulate a skin, and the stimulating force was adjusted by replacing the filaments, until the filaments were bent. One mouse was tested for 6 times to determine a threshold, and a 50% mechanical pain threshold of the mouse was calculated according to 50% threshold=(10^(Xf+k δ))/10000, which was detected weekly before and after administration respectively.
# primary DRG neuron = test: Axon growth of primary DRG neurons (immunofluorescence, Neuro J); type: cell-based, C57BL/6J mice; conditions: 24 hours
# Experimental: Diabetic peripheral neuropathy involved a sensory neuron first, and a main pathological change was axonal atrophy and degeneration, or even disappearance. […] Therefore, the compounds in the examples were added with the primary DRG neuron to incubate for a certain period of time, then the axon growth of the DRG neuron was detected by immunofluorescence, and an axon length was quantified by Neuro J, so as to evaluate the promotion effect of the compound on the axon growth of the peripheral sensory neuron.
# Primary antibodies of mice anti-β-tubulin III used for fluorescent staining were purchased from Sigma Company, cell culture reagents were all purchased from Gibco Company, and DRG neuronal cells were taken from C57BL/6J mice. Specific experimental steps were as follows: fresh DRG of the C57 mice was extracted to digest into a single-cell suspension and then inoculated into a culture plate for adherent culture overnight, with vinblastine as a positive drug, the to-be-detected compounds S1 to S87 ([…]) synthesized in the above examples were given to incubate for 24 hours, then an original culture medium was removed, 4% paraformaldehyde was added into each well to fix for 15 minutes after PBS washing, the mixture was permeabilized with 0.3% TritonX-100 for 5 minutes and sealed at room temperature with 4% BSA for 1 hour, a primary antibody (1:1000) was incubated at 4° C. overnight, a goat anti-mouse fluorescent secondary antibody (1:300) was incubated at room temperature in the dark for 1 hour, and a sealed slide was imaged by a fluorescence microscope (Leica). According to the image, a total axon length of a single DRG neuron was tracked by a Neuro J plug-in in Image J software, and a multiple of the total axon length relative to that of the blank control group was calculated.
# [2] = test system: bleomycin-induced pulmonary fibrosis mouse; test: Bleomycin-induced pulmonary fibrosis mouse, Micro-CT volume of normal lung tissue; type: in vivo, C57BL/6J mice; conditions: for Volume of normal lung tissue: bleomycin 5 mg/kg model, S26 46.8 mg/kg intragastric, Mean ± SD, n = 4
# From the text: In this experiment, the pulmonary fibrosis model was established by oral tracheal instilling of a bleomycin solution into the mouse, and then the compound S26 was administrated for treatment. A volume of a normal lung tissue of the mouse was quantified by carrying out CT photographing and three-dimensional reconstruction on a lung of the mouse to evaluate the influence of the vinpocetine derivative S26 on the degree of the bleomycin-induced pulmonary fibrosis of the mouse. Male 8-week-old C57BL/6J mice were purchased from Beijing Weitong Lihua Experimental Animal Technology Co., Ltd. One week after adaptive feeding, a lung development condition of the mouse was examined by micro-CT. The mice were divided into a blank control group (normal mice), a model group and a S26 administration group (46.8 mg/kg) according to a volume of a normal lung tissue. Subsequently, an inhalation anesthesia machine was used to carry out isoflurane inhalation to induce anesthesia. The mice in the model group and the administration group were given 5 mg/kg bleomycin solution through oral tracheal instilling to establish the pulmonary fibrosis model, while the mice in the control group were given the same volume of bleomycin solvent. The mice were administrated on day 8 after the establishment of the model, and were intragastrically administrated for 20 days continuously. Micro-CT imaging was carried out before the establishment of the model and on day 8, day 18 and day 28 after the establishment of the model to observe pulmonary fibrosis of the mice.
# [3] = test system: type-2 diabetes model db/db mice; test: 50% mechanical pain threshold (Von frey), type-2 diabetes db/db mice; type: in vivo, BKS db/db mice; conditions: S26 46.8 mg/kg/day intragastric, Mean ± SD, n = 6
# Experimental: as §1, with “Type-2” for “Type-1”, “18-week-old BKS db/db” for “8-week-old C57BL/6J”, “Jiangsu Gempharmatech Biotechnology” for “Beijing Vital River Laboratory Animal Technology”, “feeding,” for “feeding, STZ (150 mg/kg) was injected intraperitoneally, and one week later, tail vein blood collection was carried out for blood sugar detection, and the mice with random blood sugar greater than 16 mmol/L were selected. Six weeks after STZ injection,”, “(db/m” for “(non-diabetic”, “(db/db” for “(DPN”
compound,measurement,setting,value
CC[C@@]12C=C(C(=O)NCC(=O)OCCOCCOCCOCCO)n3c4c(c5ccccc53)CCN(CCC1)[C@H]42 [Compound S26],50% mechanical pain threshold,[1]; week 0 of administration,1.51 ± 0.22^ g
same,50% mechanical pain threshold,[1]; week 1 of administration,1.06 ± 0.34 g
same,50% mechanical pain threshold,[1]; week 2 of administration,0.92 ± 0.24 g
same,50% mechanical pain threshold,[1]; week 3 of administration,0.87 ± 0.15 g
same,50% mechanical pain threshold,[1]; week 4 of administration,0.85 ± 0.23 g
same,Promotion of axon growth of the primary DRG neuron compared with the positive drug (in words),primary DRG neuron; 10 μm,more outstanding effect
same,fold induction at 10 µM,"primary DRG neuron; Mus musculus, multiple of total axon length of a single DRG neuron relative to blank control group",13.7
same,Volume of normal lung tissue,[2]; day 0 of administration (day 8 after model),328.98 ± 34.15^ mm^3
same,Volume of normal lung tissue,[2]; day 10 of administration (day 18 after model),486.71 ± 48.61^# mm^3
same,Volume of normal lung tissue,[2]; day 20 of administration (day 28 after model),536.70 ± 58.44^## mm^3
same,"Volume of the normal lung tissue (in words, FIG. 3)",[2]; pulmonary fibrosis model mouse,obviously increase
same,50% mechanical pain threshold,[3]; week 0 of administration,1.33 ± 0.56^ g
same,50% mechanical pain threshold,[3]; week 1 of administration,1.04 ± 0.55^ g
same,50% mechanical pain threshold,[3]; week 2 of administration,0.91 ± 0.37 g
same,50% mechanical pain threshold,[3]; week 3 of administration,0.72 ± 0.39 g
same,50% mechanical pain threshold,[3]; week 4 of administration,0.71 ± 0.42 g
